Measurements: patent publication US20180086817A1, “Preventing, Treating or Arresting Alzheimer's, Stroke, Cardiovascular and other Amyloid Related Diseases” (priority 2016, published 2018)

What was measured:
L68Q cystatin C = target: T1, L68Q cystatin C (Homo sapiens, UniProt P01034, L94Q); assay: Preliminary trial of N-acetylcysteine in HCCAA patients expressing L68Q cystatin C, with biopsy; format: in vivo
T1 construct: confirmed by genetic screen to express L68Q cystatin C; from tissue; host or cells: HCCAA patients; biopsy (tissue not given)
T1 sequence (P01034 27-146 L94Q): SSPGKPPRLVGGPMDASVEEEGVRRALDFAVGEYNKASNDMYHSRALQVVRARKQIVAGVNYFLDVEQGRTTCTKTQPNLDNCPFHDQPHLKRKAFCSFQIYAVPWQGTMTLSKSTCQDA
Description: For an early test of effectiveness of glutathione supportive therapy in the treatment of HCCAA and similar disease involving plaque formation, human trials are planned using accepted and previously approved therapeutic interventions. Initial trials involve n-acetylcysteine based on its chemistry and historical acceptance in human therapies. Doses ranging from as low as 200 mg/day, but at least in the early trials, at higher levels to emphasize effect have been proposed with initial regulatory approvals in high risk HCCAA patients.
Three persons who had been identified through characteristic HCCAA symptoms confirmed by genetic screen to express L68Q cystatin C agreed to participate in a preliminary trial with a prototype drug to support antioxidant and other effects of GSH. N-acetylcysteine was used as a GSH-support/anti-cystatin-C-polymerization archetypical drug for conceptual proof and support of the hypotheses supporting this invention. […] One patient fully complied with the prescribed protocol. Two patients were only partially compliant. The fully compliant patient presented with a 50% reduction in plaques observed on biopsy.
Treatments are continuing, augmented by confirmatory/advisory biopsies. Biopsy intervals may be approximately weekly, but longer intervals are envisioned as sufficient to monitor effects and dosages and to encourage compliance in testing and treatment maintenance. For example, biopsy intervals may be weekly, biweekly, monthly, bimonthly, quarterly, semi-annual, annual, etc. Biopsy appointments may be used both for treatment/disease monitoring, but also to maintain patient attention and interaction. Medical advisory panels and insurance issues may also be considered in determining the frequency and type(s) of biopsies.

cellular glutathione = conditions: cited from earlier work

Structure (SMILES)	disease course (L68Q cystatin C; all three HCCAA patients (L68Q cystatin C), one fully and two partially compliant)	reduction in plaques observed on biopsy (L68Q cystatin C; fully compliant patient)	aggregated protein previously observed (L68Q cystatin C; one of the partially compliant patients)	disease course (L68Q cystatin C; remaining non-compliant patient)	effect on glutathione over time (cellular glutathione; 25 mg/kg OTC in conjunction with 800 mg/day glutathione IM)	time by which effect wanes in plasma (cellular glutathione; dose of about 22-65 mg/kg, post administration)	cellular glutathione (cellular glutathione; dose of about 22-65 mg/kg, shortly after administration)
CC(=O)N[C@@H](CS)C(=O)O [N-acetylcysteine]	disease arrest	50%	significant reduction	disease arrest	–	–	–
O=C1N[C@H](C(=O)O)CS1 [OTC, L-2-oxothiazolidine-4-carboxolate]	–	–	–	–	continued effect	≤ 8 h	double
